Assay results reported in ChEMBL document CHEMBL4373693, “Virtual Screening Approach and Investigation of Structure-Activity Relationships To Discover Novel Bacterial Topoisomerase Inhibitors Targeting Gram-Positive and Gram-Negative Pathogens” (J Med Chem, 2019).
Converted amounts (≈) assume the structure as drawn.

How the values were obtained:
[1] = tested on: Escherichia coli; assay: Antibacterial activity against Escherichia coli ATCC 25922 by CLSI method; type: functional
[2] = Inhibition of Escherichia coli topoisomerase 4 after 24 hrs by ATPase assay
[3] = biological target: T1, DNA gyrase (Escherichia coli, UniProt P0AES4+P0AES6); assay: Inhibition of Escherichia coli DNA gyrase assessed as reduction in enzyme-mediated supercoiling of relaxed plasmid by fluorescence polarization assay; type: protein-complex assay
[4] = tested on: Staphylococcus aureus; assay: Antibacterial activity against Staphylococcus aureus; type: functional
[5] = biological target: DNA gyrase (Staphylococcus aureus, UniProt P0A0K8+P20831); assay: Inhibition of Staphylococcus aureus DNA gyrase; type: protein-complex assay
[6] = biological target: T1, DNA gyrase; assay: Inhibition of Escherichia coli DNA gyrase; type: protein-complex assay
[7] = tested on: Escherichia coli; assay: Antibacterial activity against Escherichia coli; type: functional

Sequence of DNA gyrase (Staphylococcus aureus, UniProt P0A0K8+P20831) (P0A0K8 whole entry): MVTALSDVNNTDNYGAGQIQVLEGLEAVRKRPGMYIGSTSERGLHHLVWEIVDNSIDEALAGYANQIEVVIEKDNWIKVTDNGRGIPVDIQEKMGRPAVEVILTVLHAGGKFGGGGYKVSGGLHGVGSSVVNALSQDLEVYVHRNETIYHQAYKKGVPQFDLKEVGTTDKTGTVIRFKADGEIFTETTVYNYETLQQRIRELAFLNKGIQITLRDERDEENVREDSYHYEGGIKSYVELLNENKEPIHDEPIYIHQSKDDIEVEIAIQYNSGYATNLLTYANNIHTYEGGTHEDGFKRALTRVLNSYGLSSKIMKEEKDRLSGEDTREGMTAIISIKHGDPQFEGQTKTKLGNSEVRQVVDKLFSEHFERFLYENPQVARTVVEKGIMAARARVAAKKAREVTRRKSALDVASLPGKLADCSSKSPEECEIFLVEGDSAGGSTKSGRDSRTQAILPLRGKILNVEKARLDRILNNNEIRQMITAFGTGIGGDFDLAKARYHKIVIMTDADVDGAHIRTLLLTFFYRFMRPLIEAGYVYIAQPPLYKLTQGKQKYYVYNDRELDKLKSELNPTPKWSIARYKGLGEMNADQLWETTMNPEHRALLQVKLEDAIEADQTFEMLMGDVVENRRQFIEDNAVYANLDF
Sequence of DNA gyrase (Staphylococcus aureus, UniProt P0A0K8+P20831) (P20831 whole entry): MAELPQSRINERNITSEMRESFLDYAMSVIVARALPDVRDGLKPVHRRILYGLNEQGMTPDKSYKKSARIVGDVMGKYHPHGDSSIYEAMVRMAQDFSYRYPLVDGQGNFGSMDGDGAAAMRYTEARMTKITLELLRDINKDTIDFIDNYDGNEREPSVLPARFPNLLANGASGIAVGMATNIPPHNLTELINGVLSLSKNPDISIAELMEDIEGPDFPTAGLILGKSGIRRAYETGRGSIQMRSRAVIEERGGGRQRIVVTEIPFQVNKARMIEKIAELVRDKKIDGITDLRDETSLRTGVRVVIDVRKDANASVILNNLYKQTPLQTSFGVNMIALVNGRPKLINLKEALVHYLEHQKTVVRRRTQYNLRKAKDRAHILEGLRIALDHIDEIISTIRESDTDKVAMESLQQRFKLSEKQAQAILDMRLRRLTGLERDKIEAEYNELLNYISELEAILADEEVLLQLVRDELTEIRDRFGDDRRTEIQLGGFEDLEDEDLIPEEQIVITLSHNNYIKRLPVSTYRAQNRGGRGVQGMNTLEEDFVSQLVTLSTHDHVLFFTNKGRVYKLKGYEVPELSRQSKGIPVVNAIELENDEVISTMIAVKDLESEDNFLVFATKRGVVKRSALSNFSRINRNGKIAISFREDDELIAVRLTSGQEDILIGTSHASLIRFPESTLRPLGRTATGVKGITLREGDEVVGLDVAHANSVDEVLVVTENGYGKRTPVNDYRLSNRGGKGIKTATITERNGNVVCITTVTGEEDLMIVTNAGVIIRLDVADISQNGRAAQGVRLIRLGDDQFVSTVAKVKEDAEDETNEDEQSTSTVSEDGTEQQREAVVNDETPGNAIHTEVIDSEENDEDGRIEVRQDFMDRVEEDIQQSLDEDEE

Row | Compound | MIC90 [1] [µg/mL] | IC50 [2] [nM] | IC50 [3] [nM] | MIC [4] [µg/mL] | IC50 [5] [nM] | IC50 [6] [nM] | MIC [7] [µg/mL]
1 | N[C@@H](Cn1c(=O)cnc2ccc(F)cc21)C1CCC(NCc2ncc3c(n2)OCC(=O)N3)CC1 (some centres not stated) | 2 (≈ 4.28 µM) | 3 | 20 | 1 (≈ 2.14 µM) |  |  | 
2 | COc1ccc2ncc(C#N)c(CCN3CCC(NCc4cc5c(cn4)OCS5)CC3)c2c1 |  |  |  |  | 14 | 100 | 0.06 (≈ 0.13 µM)
